The structures appear in SMILES notation.

For assay [1], the target named is T1, Angiotensin-converting enzyme (Rattus norvegicus, UniProt P47820).
T1 sequence (P47820 whole entry): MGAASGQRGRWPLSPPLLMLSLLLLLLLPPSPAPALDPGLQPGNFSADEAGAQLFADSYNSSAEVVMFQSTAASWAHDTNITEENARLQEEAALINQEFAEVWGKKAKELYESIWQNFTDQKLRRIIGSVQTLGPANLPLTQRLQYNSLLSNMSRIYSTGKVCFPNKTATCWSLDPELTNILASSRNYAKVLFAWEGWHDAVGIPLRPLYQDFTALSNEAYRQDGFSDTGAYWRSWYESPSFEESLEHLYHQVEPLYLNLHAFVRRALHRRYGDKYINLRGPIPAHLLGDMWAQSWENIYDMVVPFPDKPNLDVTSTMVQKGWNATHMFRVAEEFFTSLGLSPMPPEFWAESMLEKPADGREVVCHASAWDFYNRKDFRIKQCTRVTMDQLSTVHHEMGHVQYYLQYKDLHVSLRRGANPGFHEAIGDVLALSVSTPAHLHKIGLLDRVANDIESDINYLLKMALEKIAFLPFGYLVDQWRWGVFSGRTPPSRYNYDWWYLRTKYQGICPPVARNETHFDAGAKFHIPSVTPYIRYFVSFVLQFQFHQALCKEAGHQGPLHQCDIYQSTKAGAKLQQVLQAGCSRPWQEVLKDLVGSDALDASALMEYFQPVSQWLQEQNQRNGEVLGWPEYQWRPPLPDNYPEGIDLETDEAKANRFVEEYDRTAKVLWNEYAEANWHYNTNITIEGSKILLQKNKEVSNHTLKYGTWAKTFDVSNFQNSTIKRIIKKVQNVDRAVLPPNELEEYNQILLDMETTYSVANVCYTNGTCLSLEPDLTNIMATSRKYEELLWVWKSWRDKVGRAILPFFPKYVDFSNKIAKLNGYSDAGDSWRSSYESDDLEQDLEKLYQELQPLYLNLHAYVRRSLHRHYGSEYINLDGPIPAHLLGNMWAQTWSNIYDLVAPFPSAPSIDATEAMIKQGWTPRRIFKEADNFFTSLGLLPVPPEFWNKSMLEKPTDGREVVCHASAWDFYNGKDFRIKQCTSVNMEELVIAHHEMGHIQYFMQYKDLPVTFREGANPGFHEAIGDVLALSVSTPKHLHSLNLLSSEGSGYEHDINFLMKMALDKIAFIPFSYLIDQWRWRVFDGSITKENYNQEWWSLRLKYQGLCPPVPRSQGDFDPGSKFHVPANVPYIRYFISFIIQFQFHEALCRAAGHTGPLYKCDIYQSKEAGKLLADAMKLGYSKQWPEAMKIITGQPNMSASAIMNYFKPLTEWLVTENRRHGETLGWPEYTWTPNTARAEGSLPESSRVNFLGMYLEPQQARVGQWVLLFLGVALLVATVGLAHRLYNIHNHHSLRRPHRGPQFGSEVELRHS
Description: In vitro inhibition of angiotensin converting enzyme isolated from rat lung. The following applies: read-out: I50.

For another assay, the target named is T2, Neprilysin (Rattus norvegicus, UniProt P07861).
T2 sequence (P07861 whole entry): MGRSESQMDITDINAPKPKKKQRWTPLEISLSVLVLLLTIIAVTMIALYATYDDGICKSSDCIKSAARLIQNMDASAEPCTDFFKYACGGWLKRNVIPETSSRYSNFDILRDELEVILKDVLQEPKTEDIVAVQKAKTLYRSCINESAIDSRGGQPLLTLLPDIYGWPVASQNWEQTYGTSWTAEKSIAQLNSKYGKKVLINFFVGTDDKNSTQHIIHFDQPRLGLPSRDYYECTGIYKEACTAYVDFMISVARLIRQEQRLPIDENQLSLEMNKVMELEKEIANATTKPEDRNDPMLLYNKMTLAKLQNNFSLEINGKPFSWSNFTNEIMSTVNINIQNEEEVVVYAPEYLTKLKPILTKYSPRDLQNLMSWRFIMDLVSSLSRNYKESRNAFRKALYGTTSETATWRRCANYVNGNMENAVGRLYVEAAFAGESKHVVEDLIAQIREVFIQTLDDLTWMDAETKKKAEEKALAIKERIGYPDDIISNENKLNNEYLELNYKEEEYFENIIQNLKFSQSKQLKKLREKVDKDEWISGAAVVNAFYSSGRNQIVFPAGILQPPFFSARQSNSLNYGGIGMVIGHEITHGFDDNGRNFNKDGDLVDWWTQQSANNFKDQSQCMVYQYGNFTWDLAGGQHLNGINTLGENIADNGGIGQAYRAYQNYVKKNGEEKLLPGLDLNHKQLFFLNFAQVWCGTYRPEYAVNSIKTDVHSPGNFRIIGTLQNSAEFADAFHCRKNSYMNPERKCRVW
Description: In vitro inhibition of Neutral Endopeptidase isolated from rat kidney. The following applies: read-out: I50.

In the next assay the test system is Rattus norvegicus. Kind of assay: Effective dose required to inhibit angiotensin 1(AI) induced pressor response in normotensive rats when administered intravenously. The following applies: iv. The assay is classed as functional.

Regarding `O=C(O)CN1C[C@@H](c2ccccc2)SC[C@H](NC(=O)[C@@H](S)Cc2ccccc2)C1=O`, the figures for the IC50 (in assay [1]; at Neprilysin) were 40 nM and 99 nM, respectively. Moreover, the ED50 in the assay on Rattus norvegicus is under 0.15 µmol/kg.

In the case of `O=C(O)CN1CSCC[C@H](NC(=O)[C@@H](S)Cc2ccccc2)C1=O`, the IC50 in assay [1] came out at 61 nM; at Neprilysin, 535 nM.

Turning to `O=C(O)CN1C(=O)[C@@H](NC(=O)[C@@H](S)Cc2ccccc2)CS[C@H]1c1ccccc1`, the IC50 in assay [1] was determined as 73 nM.

With `O=C(O)CN1C(=O)[C@@H](NC(=O)[C@@H](S)Cc2ccccc2)CS[C@@H]1c1ccccc1`, in assay [1], the IC50 amounted to 25 nM. The compound also showed an ED50 with Rattus norvegicus of 2.75 µmol/kg.

`O=C(O)CN1C[C@@H](c2ccccc2)SC[C@H](NC(=O)[C@@H](CS)Cc2ccccc2)C1=O`: in assay [1], the IC50 came to 33 nM. In the assay with Rattus norvegicus, the ED50 was over 1.5 µmol/kg.

For `O=C(O)CN1C(=O)[C@@H](NC(=O)[C@@H](S)Cc2ccccc2)CSc2ccccc21`, the IC50 in assay [1] worked out at 13 nM. Further, the 50% effect level in the assay on Rattus norvegicus (ED50) was put at a dose of 0.14 µmol/kg.

For the compound `CC1(C)CSC[C@H](NC(=O)[C@@H](S)Cc2ccccc2)C(=O)N1CC(=O)O`, the IC50 in assay [1] turned out to be 13.8 nM.

Regarding `O=C(O)CN1C[C@H](c2ccccc2)SC[C@H](NC(=O)[C@@H](S)Cc2ccccc2)C1=O`, the IC50 in assay [1] turned out to be 290 nM; at Neprilysin, 2040 nM.

Turning to `C[C@@H]1SCC[C@H](NC(=O)[C@@H](S)Cc2ccccc2)C(=O)N1CC(=O)O`, the IC50 in assay [1] was determined as 11.7 nM.

`O=C(O)CN1C(=O)[C@H](NC(=O)[C@@H](S)Cc2ccccc2)CS[C@@H]1c1ccccc1`: the IC50 in assay [1] stood at 20 nM. The same compound showed an ED50 in the assay with Rattus norvegicus of 0.21 µmol/kg.

`O=C(O)CN1CCSC[C@H](NC(=O)[C@@H](CS)Cc2ccccc2)C1=O`: in assay [1], the IC50 is 100 nM.

On to `O=C(O)CN1C(=O)[C@H](NC(=O)[C@@H](CS)Cc2ccccc2)CS[C@@H]1c1ccccc1`, for which the figures for the IC50 (in assay [1]; at Neprilysin) were 123 nM and 126 nM, respectively.

As to `O=C(O)CN1C(=O)[C@@H](NC(=O)[C@@H](CS)Cc2ccccc2)CS[C@@H]1c1ccccc1`, the figures for the IC50 (in assay [1]; on Neprilysin) were 167 nM and 2.5 nM, respectively.

On to `O=C(O)CN1C(=O)[C@@H](NC(=O)[C@@H](CS)Cc2ccccc2)CSC[C@H]1c1ccccc1`, for which the IC50 in assay [1] came to 22 nM.

As for `O=C(O)CN1C(=O)[C@@H](NC(=O)[C@@H](CS)Cc2ccccc2)CS[C@H]1c1ccccc1`, the IC50 in assay [1] amounted to 115 nM; on Neprilysin it was 2.7 nM.

Regarding `O=C(O)CN1CCSC[C@H](NC(=O)[C@@H](S)Cc2ccccc2)C1=O`, the IC50 amounted to 67 nM in assay [1] and 244 nM on Neprilysin. The compound also showed an ED50 with Rattus norvegicus of 4.4 µmol/kg.

`O=C(O)CN1C(=O)[C@@H](NC(=O)[C@@H](CS)Cc2ccccc2)CSc2ccccc21`: the IC50 in assay [1] is 17 nM; on Neprilysin it was 1 nM. Further, the ED50 in the assay on Rattus norvegicus was found to be 3.96 µmol/kg.

On to `O=C(O)CN1C(=O)[C@@H](NC(=O)[C@@H](S)Cc2ccccc2)CSC[C@H]1c1ccccc1`, for which the IC50 in assay [1] was found to be 29 nM. Moreover, the 50% effect level with Rattus norvegicus (ED50) was put at a dose of 0.49 µmol/kg.

Source of the values: ChEMBL document CHEMBL1127970, “Dual metalloprotease inhibitors. IV. Utilization of thiazepines and thiazines as constrained peptidomimetic surrogates in mercaptoacyl dipeptides” (Bioorg Med Chem Lett, 1994).
